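Five concentrations, 48 hours, 96-well plates. Abbreviation: GI50, concentration required for 50% inhibition of growth.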 Calls of active or inactive are those of the source. Rule as the data show it: active = GI50 up to about 1.1 µM and inactive = higher.
What was measured:
Test in all cases: NCI anticancer screen, dose series, 48 h
A498 = test system: A498
MDA-MB-435 = test system: MDA-MB-435
ACHN = test system: ACHN
DU-145 = test system: DU-145
HCC 2998 = test system: HCC 2998
UACC-257 = test system: UACC-257
NCI-H522 = test system: NCI-H522
PC-3 = test system: PC-3
OVCAR-4 = test system: OVCAR-4
SK-MEL-5 = test system: SK-MEL-5
Hs-578T = test system: Hs-578T
Malme-3M = test system: Malme-3M
COLO 205 = test system: COLO 205
HCT-116 = test system: HCT-116
MDA-MB-231 = test system: MDA-MB-231
HOP-62 = test system: HOP-62
SK-MEL-28 = test system: SK-MEL-28
SK-OV-3 = test system: SK-OV-3
IGROV-1 = test system: IGROV-1
NCI-H460 = test system: NCI-H460

Measured: GI50

CCCCC1Cc2cc(O)ccc2-c2n1c1cc(O)ccc1[n+]2C.CCCCC1Cc2cc(O)ccc2-c2n1c1ccc(O)cc1[n+]2C (stereo not given)
inactive: A498 31.9 µM | MDA-MB-435 19 µM | ACHN 56 µM | DU-145 78.7 µM | HCC 2998 28.2 µM | UACC-257 11.6 µM | NCI-H522 2.99 µM | PC-3 49.5 µM | OVCAR-4 27.7 µM | SK-MEL-5 4.05 µM | Hs-578T 5.47 µM | Malme-3M 19.5 µM | COLO 205 18.3 µM | HCT-116 36.9 µM | MDA-MB-231 48 µM | HOP-62 43.8 µM | SK-MEL-28 6.64 µM | SK-OV-3 57.3 µM | IGROV-1 25.9 µM | NCI-H460 37.9 µM

CCOC(=O)/C(C#N)=C/c1ccc2c(c1)CC1(C2)Cc2cc(CC)c(C(C)O)cc2C1 (stereo not given)
inactive: A498 25.8 µM | MDA-MB-435 2.14 µM | ACHN 30.3 µM | DU-145 19.2 µM | HCC 2998 16.3 µM | UACC-257 15.8 µM | NCI-H522 47 µM | PC-3 10.2 µM | OVCAR-4 9.59 µM | SK-MEL-5 4.78 µM | Hs-578T 10 µM | Malme-3M 6.11 µM | COLO 205 25.2 µM | HCT-116 4.27 µM | MDA-MB-231 10.5 µM | HOP-62 14.2 µM | SK-MEL-28 12.8 µM | SK-OV-3 15.4 µM | IGROV-1 23 µM | NCI-H460 23.2 µM

CCN(CC)CCn1c2ccccc2c(=O)c2c(O)ccc(O)c21
inactive: A498 74.3 µM | MDA-MB-435 18.6 µM | ACHN 33.7 µM | DU-145 > 59.4 µM | HCC 2998 > 41.3 µM | UACC-257 36.9 µM | NCI-H522 15.4 µM | PC-3 24.5 µM | OVCAR-4 17.3 µM | SK-MEL-5 21.3 µM | Hs-578T 22.1 µM | Malme-3M 24.7 µM | COLO 205 20.6 µM | HCT-116 31.1 µM | MDA-MB-231 16.1 µM | HOP-62 50.5 µM | SK-MEL-28 33.2 µM | SK-OV-3 69.8 µM | IGROV-1 38.5 µM | NCI-H460 > 57.9 µM

CCOP(=O)(OCC)C(C(=O)OC)C(=O)C(=O)Nc1cccc(O)c1 (stereo not given)
inactive: A498 > 100 µM | MDA-MB-435 > 100 µM | ACHN > 100 µM | DU-145 > 100 µM | HCC 2998 > 100 µM | UACC-257 > 100 µM | NCI-H522 > 100 µM | PC-3 > 100 µM | OVCAR-4 > 100 µM | SK-MEL-5 > 100 µM | Hs-578T > 100 µM | Malme-3M > 100 µM | COLO 205 > 100 µM | HCT-116 > 100 µM | MDA-MB-231 > 100 µM | HOP-62 > 100 µM | SK-MEL-28 > 100 µM | SK-OV-3 > 100 µM | IGROV-1 > 100 µM | NCI-H460 > 100 µM

Cc1ccc(S(=O)(=O)N/N=C2\CCC3(O)CC2(C)CCC2C3CC2(C)C)cc1 (stereo not given)
inactive: A498 36.8 µM | MDA-MB-435 40.5 µM | ACHN 31.8 µM | DU-145 36.2 µM | HCC 2998 46.3 µM | UACC-257 37.1 µM | NCI-H522 20.9 µM | PC-3 22 µM | OVCAR-4 28.4 µM | SK-MEL-5 35.6 µM | Hs-578T 20 µM | Malme-3M 53.2 µM | COLO 205 22.5 µM | HCT-116 30.7 µM | MDA-MB-231 47.8 µM | HOP-62 92.7 µM | SK-MEL-28 31.1 µM | SK-OV-3 37 µM | IGROV-1 45.1 µM | NCI-H460 19.3 µM

COc1cc(C2SCC(=O)N2c2ccc(-c3ccc(-n4c(-c5ccccc5)nc5ccccc5c4=O)cc3)cc2)cc(OC)c1OC (stereo not given)
inactive: A498 44.3 µM | MDA-MB-435 21.8 µM | ACHN 16.6 µM | DU-145 78 µM | HCC 2998 55.2 µM | UACC-257 8.04 µM | NCI-H522 13.4 µM | PC-3 11.4 µM | OVCAR-4 10.4 µM | SK-MEL-5 22.4 µM | Hs-578T 20 µM | Malme-3M 31.7 µM | COLO 205 54.1 µM | HCT-116 13.1 µM | MDA-MB-231 15.6 µM | HOP-62 23.3 µM | SK-MEL-28 21.9 µM | SK-OV-3 57.3 µM | IGROV-1 19 µM | NCI-H460 27.5 µM

CCc1cccc(C(C)(C)C)c1NC(=S)N/C=C(/C#N)C(N)=O
inactive: A498 > 100 µM | MDA-MB-435 > 100 µM | ACHN > 100 µM | DU-145 > 100 µM | HCC 2998 > 100 µM | UACC-257 > 100 µM | NCI-H522 > 100 µM | PC-3 > 100 µM | OVCAR-4 > 100 µM | SK-MEL-5 > 100 µM | Hs-578T 83 µM | Malme-3M > 100 µM | COLO 205 > 100 µM | HCT-116 > 100 µM | MDA-MB-231 > 100 µM | HOP-62 > 100 µM | SK-MEL-28 > 100 µM | SK-OV-3 > 100 µM | IGROV-1 > 100 µM | NCI-H460 > 100 µM
